Patent US10894777B2, “TG2 inhibitor piperazine compounds and uses thereof” (UNIVERSITY OF OTTAWA, priority 2016, dated 2021)

Legend:
Type in all cases: cell-based, human
[1] = system: SCC-13 cells; assay: EMT marker immunoblot, SCC-13 cells; conditions: 20 μM, 48 h
Protocol: In (A), SCC-13 cells (500,000) were plated in monolayer culture in spheroid medium in 100 mm dishes. Fresh spheroid medium containing 0 or 20 μM NC9 was added at time zero and again at 24 h. After 48 h lysates were collected for electrophoresis and immunoblot. In (B), SCC-13 cells were pretreated with 0 or 20 μM NC9 for 2 h and then harvested and plated (25,000 cells) in the upper chamber in 1 mL of medium, above a matrigel-coated membrane, in a Millicell chamber. After 30 h. the inside of membrane was harvested and the nuclei of migrated cells on the bottom of the membrane were counted using an inverted fluorescent microscope. The values are mean±SEM, n=3 (p, 0.05). In (C), SCC-13 (2 million) cells were plated in spheroid medium in 100 mm dishes and grown as monolayer cultures. Confluent monolayers were then scratched with a 10-μL pipette tip and wound width was monitored for 0-18 h.
Immunoblot. […] Blots were rinsed and then incubated with secondary antibody (diluted 1:5000) for 2 h. Secondary antibody binding was visualized using ECL Prime chemiluminescence detection technology (Amersham).

[2] = system: NFκB; assay: NFκB subcellular distribution (cell fractionation, immunoblot), ECS cells; conditions: 8 day spheroids, 20 μM, 48 h
Protocol: In (A), it is shown that ECS cells have reduced NFκB-p65 levels. SCC-13 cells (40,000) were grown in spheroid medium in attached (monolayer) and non-attached (spheroid, ECS cells) conditions. Lysates were prepared after 10 d in culture for electrophoresis and detection of indicated epitopes. In (B). […] and SCC13-TG2-shRNA2 cells were grown in spheroid medium as monolayers. After 10 d in culture, lysates were collected for detection of TG2 and NFκB-p65. In (C), SCC-13 cells were electroporated with control-, NFκB-p65- or TG2-siRNA and then cultured as monolayers in spheroid medium. After 72 h extracts were prepared to assay TG2, NFκB-p65 and EMT markers. In (D), SCC-13 cells were electroporated with empty vector Control- or TG2-siRNA and plated in monolayer culture. The following day cells were fixed, permeabilized and incubated with antibodies specific for the indicated epitopes. […] In (E), an equal number of cell equivalents of total (T), nuclear (N), and cytosolic (C) extract, prepared from SCC13-Control-shRNA and SCC13-TG2-shRNA2 (TG2 knockdown) cells, was electrophoresed for immunoblot detection of NFκB, histone 3 (nuclear marker) and β-actin (cytoplasmic marker). […] In (F), total (T), nuclear (N), and cytosolic (C) extract was prepared from 8 day spheroids (ECS cells) treated with 0 or 20 μM NC9 for 48 h. […]

[3] = system: TG2 mRNA; assay: TG2 mRNA expression by qRT-PCR in GBM cell lines; conditions: 10 μM, 24 or 48 h
Protocol: Q-RTPCR. After RNA isolation, cDNA was synthesized using the verso cDNA kit (ThermoFisher) with oligo-dT primers following the manufacturer's instructions. Quantitative real time PCR was carried out using SYBR green mix (Agilent Technologies) along with primers against total human TG2 or GAPDH (for normalization) as previously described (Cao, L. et al., Oncogene 31(20):2521-34, 2012).

[4] = system: U251 cells; assay: Agarose colony formation assay, U251 cells; conditions: 10 μM, 2 weeks
Protocol: Agarose colony formation assay. Agarose colony formation assay was conducted as described (Horman, S. R. et al., J. Biomol. Screen 18(10):1298-308, 2013; Zhang, K. et al., Tumour Biol. 35(3):2537-48, 2014) using 6-well plates and 5,000 cells in each well. 10 μM NC9 or DMSO was added to every layer at the start of the experiments. 2 mL liquid MEM containing 10 μM NC9 or DMSO was used to cover the agarose and it was changed 3 times a week. Colony growth was monitored every day and at the end of 10-15 days, the colonies were fixed with 4% paraformaldehyde, stained with 0.005% crystal violet, washed with PBS twice and 40 random pictures were taken from each treatment group. A person blinded for the treatments measured the area of the colonies using ImageJ program and the volumes were calculated from the area data under the assumption that the colonies are perfect spheres. The volumes were used to compare the effect of NC9 on colony growth.

## C=CC(=O)NCCCC[C@H](NC(=O)OCc1ccccc1)C(=O)NCCOCCOCCNS(=O)(=O)c1cccc2c(N(C)C)cccc12 [NC9]
[1]
  E-cadherin level: elevated
  EMT transcription factor and EMT marker levels: reduced EMT transcription factor (Twist, Snail, Slug) and EMT marker (vimentin, fibronectin, N-cadherin, HIF-1α) levels
[2]
  cytoplasmic/nuclear distribution of NFκB: not altered
[3]
  TG2 mRNA levels: no significant effects
[4]
  colony growth, U251: significantly reduced the growth
